Experimental data reported in the supplement of paper PMC8671470.

Tests used:
Details in all cases: 72 h
[1] = test system: BV-173
Method in brief: (§1)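 Each of fifteen myeloid leukaemia cell lines was seeded in RPMI 1640 at a density titrated to its linear growth range. The cells were incubated for 72 h at 37 °C and 5% CO2 with compounds at five tenfold doses from 1 to 10,000 nM, in duplicate. After ATP luminescence was normalised to vehicle and to a positive control at 10 µM, four-parameter log-logistic curves were fitted. These curves gave the IC50.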

[2] = test system: HEL
Method in brief: as §1

[3] = test system: HL-60
Method in brief: as §1

[4] = test system: K-562
Method in brief: as §1

[5] = test system: KCL-22
Method in brief: as §1

[6] = test system: KG-1
Method in brief: as §1

[7] = test system: KU-812
Method in brief: as §1

[8] = test system: LAMA-84
Method in brief: as §1

[9] = test system: ML-2
Method in brief: as §1

[10] = test system: MOLM-13
Method in brief: as §1

[11] = test system: MV4-11
Method in brief: as §1

[12] = test system: Mono-Mac-6
Method in brief: as §1

[13] = test system: NOMO-1
Method in brief: as §1

[14] = test system: SHI-1
Method in brief: as §1

[15] = test system: THP-1
Method in brief: as §1

[16] = test system: HL-60; assay: cell viability (% survival relative to DMSO control); higher = less cytotoxic
Method in brief: (§2)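 A rescreen of the full library used HL-60 cells in RPMI 1640 with 10% FBS on 384-well plates, run in duplicate at five tenfold concentrations (1–10,000 nM). Each screen included DMSO or 100 nM of one of three metabolic inhibitors and ran 72 h at 37 °C, 5% CO2. CellTiter-Glo viability was scaled between DMSO and 10 μM proteasome-inhibitor wells. Any area under the curve comes from four-parameter log-logistic fits with drc and PharmacoGx.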

[17] = test system: BV-173; assay: cell viability (% survival relative to DMSO control, bortezomib = 0%); higher = less cytotoxic
Method in brief: (§3)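 Fifteen myeloid leukaemia cell lines were exposed to compounds at 1, 10, 100, 1000 or 10000 nM in 384-well plates for 72 h at 37 °C and 5% CO2. Viability was read by CellTiter-Glo luminescence and normalised, with vehicle as 100% and a 10 µM positive control as 0%. Values are percent survival averaged over duplicates.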

[18] = test system: HEL; assay: as above
Method in brief: as §3

[19] = test system: HL-60; assay: as above
Method in brief: as §3

[20] = test system: K-562; assay: as above
Method in brief: as §3

[21] = test system: KCL-22; assay: as above
Method in brief: as §3

[22] = test system: KU-812; assay: as above
Method in brief: as §3

[23] = test system: LAMA-84; assay: as above
Method in brief: as §3

[24] = test system: ML-2; assay: as above
Method in brief: as §3

[25] = test system: Mono-Mac-6; assay: as above
Method in brief: as §3

[26] = test system: NOMO-1; assay: as above
Method in brief: as §3

[27] = test system: SHI-1; assay: as above
Method in brief: as §3

[28] = test system: HL-60; assay: area under dose-response curve (viability, 1 nM-10 uM) (fraction (0-1)); higher = more sensitive
Method in brief: as §2

O=c1cc(-c2ccccc2)oc2cc(O)c(O)c(O)c12 [Baicalein]
Details	IC50 (cell viability) [µM]
[1]	> 10
[2]	> 10
[3]	4.39
[4]	9.24
[5]	> 10
[6]	6.35
[7]	> 10
[8]	> 10
[9]	8.18
[10]	> 10
[11]	> 10
[12]	> 10
[13]	> 10
[14]	> 10
[15]	> 10

cell viability [%], [16]
Details	0.001 µM	0.01 µM	0.1 µM	1 µM	10 µM
co-treatment: AZD3965 100 nM	99.72	100	103	97.6	101.4
co-treatment: DMSO vehicle	102.7	102	101	98.895	102
co-treatment: GSK2194069 100 nM	97.26	102	93.5	98.1	99.8
co-treatment: pictilisib 100 nM	99.21	106	98.9	106	89.5

Details	area under dose-response curve, co-treatment: AZD3965 100 nM	area under dose-response curve, co-treatment: DMSO vehicle	area under dose-response curve, co-treatment: GSK2194069 100 nM	area under dose-response curve, co-treatment: pictilisib 100 nM	cell viability, 1 nM [%]	cell viability, 10 nM [%]	cell viability, 100 nM [%]	cell viability, 1000 nM [%]	cell viability, 10000 nM [%]
[17]	–	–	–	–	100	99.5	96.2	154	64.2
[18]	–	–	–	–	108	88.2	109	137	75.4
[19]	–	–	–	–	110	86.7	114	85.3	43
[20]	–	–	–	–	104	104	102	108	45.6
[21]	–	–	–	–	95	70.2	113	102	49.3
[22]	–	–	–	–	93.5	94.1	99.4	108	61.4
[23]	–	–	–	–	98.2	99.6	94.4	104	75
[24]	–	–	–	–	98.9	93.2	87.5	97.9	37.7
[25]	–	–	–	–	103	102	99.2	117	75.4
[26]	–	–	–	–	99.2	91.3	104	123	98.2
[27]	–	–	–	–	109	92	126	97.2	82.8
[28]	< 0.0301	< 0.0301	< 0.0301	< 0.0301	–	–	–	–	–
